Our source for the kinact/KI values is PubChem BioAssay AID651868 (The Scripps Research Institute Molecular Screening Center, 2012).

The target in the assay is Protein-arginine deiminase type-1 (Homo sapiens) (UniProt Q9ULC6). The experiment in a line: PubChem AID 651868. The note with it: recombinant PAD1, citrulline colorimetric, time-dependent inactivation; active compounds read high.
Sequence of Protein-arginine deiminase type-1 (Homo sapiens) (Q9ULC6 whole entry, looked up): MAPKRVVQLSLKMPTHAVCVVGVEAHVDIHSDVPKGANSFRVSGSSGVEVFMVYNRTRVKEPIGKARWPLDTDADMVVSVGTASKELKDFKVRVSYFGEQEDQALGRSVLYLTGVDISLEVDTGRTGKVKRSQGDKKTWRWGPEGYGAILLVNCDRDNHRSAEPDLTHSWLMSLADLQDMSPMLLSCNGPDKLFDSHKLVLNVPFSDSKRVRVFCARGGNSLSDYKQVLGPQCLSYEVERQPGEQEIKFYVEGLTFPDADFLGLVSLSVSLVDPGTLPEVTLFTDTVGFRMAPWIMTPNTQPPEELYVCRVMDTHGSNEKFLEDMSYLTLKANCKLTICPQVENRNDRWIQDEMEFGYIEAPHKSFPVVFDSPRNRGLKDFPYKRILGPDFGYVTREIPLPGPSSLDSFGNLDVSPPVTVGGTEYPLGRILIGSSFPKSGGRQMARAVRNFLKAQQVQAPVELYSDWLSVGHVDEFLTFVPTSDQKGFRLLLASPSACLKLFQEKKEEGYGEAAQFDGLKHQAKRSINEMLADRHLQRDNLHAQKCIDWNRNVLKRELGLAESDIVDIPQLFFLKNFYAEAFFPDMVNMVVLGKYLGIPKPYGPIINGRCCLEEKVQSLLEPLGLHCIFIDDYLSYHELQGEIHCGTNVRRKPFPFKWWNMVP

With `NC1=CC(=O)c2ccc(-c3cccc(C(=O)O)n3)nc2C1=O`, the kinact/KI was 3500 M⁻¹ min⁻¹.

One may read the kinact/KI as the second-order rate constant of inactivation.
